Like-named read-outs stand apart in the source and are kept apart here.
Experiments:
[1] = tested on: MDA-MB-436 (a BRCA-1-mutated breast cancer cell line); experiment: Cell proliferation assay, three-day, CellTiter-Glo, MDA-MB-436; assay type: cell-based; details: Homo sapiens; for inhibition at 0.00508 µM: MDA-MB-436, MDA-MB-436, Conc. 0.00508 uM; for inhibition at 0.0152 µM: MDA-MB-436, MDA-MB-436, Conc. 0.0152 uM; for inhibition at 0.0457 µM: MDA-MB-436, MDA-MB-436, Conc. 0.0457 uM; for inhibition at 0.41 µM: MDA-MB-436, MDA-MB-436, Conc. 0.41 uM; for inhibition at 1.23 µM: MDA-MB-436, MDA-MB-436, Conc. 1.23 uM; for inhibition at 3.7 µM: MDA-MB-436, MDA-MB-436, Conc. 3.70 uM; for inhibition at 11.11 µM: MDA-MB-436, MDA-MB-436, Conc. 11.11 uM; for inhibition at 33.33 µM: MDA-MB-436, MDA-MB-436, Conc. 33.33 uM; for inhibition at 100 µM: MDA-MB-436, MDA-MB-436, Conc. 100.00 uM; for IC50: MDA-MB-436, 72 h, CellTiter-Glo, read-out: MDA-MB-436 IC50
Method in brief: (§1)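 Luminescent ATP read-out (CellTiter-Glo, 60 min at room temperature) quantified viability after a 72 h compound exposure at 37 °C, 5% CO2. Compounds, diluted from DMSO stocks into growth medium, were added to cells plated the previous day.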

PARP-2 = biological target: T1, PARP-2 (Homo sapiens, UniProt Q9UGN5); experiment: PARP-2 inhibition assay (PARP-2 Chemiluminescent Assay Kit, BPS Bioscience); assay type: biochemical; details: 10 nM compound
T1 construct: purchased BPS Bioscience 80552
T1 sequence (Q9UGN5 whole entry): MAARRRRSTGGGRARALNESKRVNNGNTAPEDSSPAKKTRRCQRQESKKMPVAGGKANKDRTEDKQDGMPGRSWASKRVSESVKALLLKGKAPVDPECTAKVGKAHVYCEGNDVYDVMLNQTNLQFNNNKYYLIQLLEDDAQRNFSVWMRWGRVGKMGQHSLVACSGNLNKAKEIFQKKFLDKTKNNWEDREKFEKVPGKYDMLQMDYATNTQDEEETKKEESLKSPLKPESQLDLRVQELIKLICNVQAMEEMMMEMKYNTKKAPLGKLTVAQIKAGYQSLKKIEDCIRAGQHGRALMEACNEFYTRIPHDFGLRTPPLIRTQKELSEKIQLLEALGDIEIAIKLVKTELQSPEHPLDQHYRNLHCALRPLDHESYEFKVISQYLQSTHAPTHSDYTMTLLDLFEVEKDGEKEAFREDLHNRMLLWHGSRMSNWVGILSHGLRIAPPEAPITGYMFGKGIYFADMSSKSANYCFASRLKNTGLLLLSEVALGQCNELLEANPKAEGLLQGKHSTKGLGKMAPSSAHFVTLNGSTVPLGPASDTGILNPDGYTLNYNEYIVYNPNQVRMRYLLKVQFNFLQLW
Procedure: (§2) The PARP-1 and PARP-2 inhibition assays were performed in outsourcing, by a CRO company, Shanghai Medicilon Inc. (Shanghai, China). […] Briefly, PARP-1 or PARP-2 biotinylated substrate was incubated with compounds or solvent control at varying concentrations and an assay buffer containing the PARP-1 or PARP-2 enzyme.

[2] = tested on: CAPAN-1 (a BRCA-2-mutated pancreatic cancer cell line); experiment: Cell proliferation assay, three-day, CellTiter-Glo, CAPAN-1; assay type: cell-based; details: Homo sapiens; for IC50: CAPAN-1, 72 h, CellTiter-Glo, read-out: CAPAN-1 IC50; for inhibition at 0.00508 µM: CAPAN-1, Conc. 0.00508 uM; for inhibition at 0.0152 µM: CAPAN-1, Conc. 0.0152 uM; for inhibition at 0.0457 µM: CAPAN-1, Conc. 0.0457 uM; for inhibition at […]: CAPAN-1, Conc. 0.14 uM; for inhibition at 0.41 µM: CAPAN-1, Conc. 0.41 uM; for inhibition at 1.23 µM: CAPAN-1, Conc. 1.23 uM; for inhibition at 3.7 µM: CAPAN-1, Conc. 3.70 uM; for inhibition at 11.11 µM: CAPAN-1, Conc. 11.11 uM; for inhibition at 33.33 µM: CAPAN-1, Conc. 33.33 uM; for inhibition at 100 µM: CAPAN-1, Conc. 100.00 uM
Method in brief: as §1

PARP-1 = biological target: T2, PARP-1 (Homo sapiens, UniProt P09874); experiment: PARP-1 inhibition assay (PARP-1 Chemiluminescent Assay Kit, BPS Bioscience); assay type: biochemical; details: 10 nM compound
T2 construct: purchased BPS Bioscience 80569
T2 sequence (P09874 whole entry): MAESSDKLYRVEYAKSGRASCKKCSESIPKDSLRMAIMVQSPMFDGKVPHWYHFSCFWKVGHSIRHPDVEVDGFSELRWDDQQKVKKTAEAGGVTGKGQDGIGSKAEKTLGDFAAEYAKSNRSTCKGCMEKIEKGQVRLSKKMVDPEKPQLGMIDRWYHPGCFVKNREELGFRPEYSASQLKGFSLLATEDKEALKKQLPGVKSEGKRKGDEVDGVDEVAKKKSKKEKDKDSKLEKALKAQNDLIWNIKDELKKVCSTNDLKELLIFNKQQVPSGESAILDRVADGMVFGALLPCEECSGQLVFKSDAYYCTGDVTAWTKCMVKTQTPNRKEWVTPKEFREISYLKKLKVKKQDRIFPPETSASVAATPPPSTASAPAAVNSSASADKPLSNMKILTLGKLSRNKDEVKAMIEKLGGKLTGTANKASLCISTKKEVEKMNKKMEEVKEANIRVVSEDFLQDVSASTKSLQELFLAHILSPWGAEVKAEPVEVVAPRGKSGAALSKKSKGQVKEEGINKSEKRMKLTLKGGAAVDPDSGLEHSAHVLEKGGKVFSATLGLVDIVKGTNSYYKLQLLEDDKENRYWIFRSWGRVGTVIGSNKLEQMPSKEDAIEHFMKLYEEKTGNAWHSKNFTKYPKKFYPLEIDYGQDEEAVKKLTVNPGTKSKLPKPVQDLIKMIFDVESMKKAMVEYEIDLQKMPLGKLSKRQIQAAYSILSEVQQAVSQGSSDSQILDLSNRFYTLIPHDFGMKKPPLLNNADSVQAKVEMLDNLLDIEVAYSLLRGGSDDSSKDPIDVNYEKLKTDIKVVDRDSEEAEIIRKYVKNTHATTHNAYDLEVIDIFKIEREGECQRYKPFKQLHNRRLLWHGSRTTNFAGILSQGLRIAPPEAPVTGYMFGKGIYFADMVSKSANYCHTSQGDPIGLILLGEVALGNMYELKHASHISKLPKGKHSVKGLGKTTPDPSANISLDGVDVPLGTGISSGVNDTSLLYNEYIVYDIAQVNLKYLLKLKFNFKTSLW
Procedure: as §2

[3] = supplement sheet, read-out: 10 nM inhibition% PAPR-2
[4] = read-out: PARP-2 Inhibition % (10 nM)
[5] = supplement sheet, read-out: 10 nM inhibition% PAPR-1
[6] = read-out: PARP-1 Inhibition % (10 nM)

SMILES: NCCN1CCC(c2nc3c(C(N)=O)cccc3[nH]2)C1 (stereo not shown) [Compound 5cm, 2-(1-(2-Aminoethyl)pyrrolidin-3-yl)-1H-benzo[d]imidazole-4-carboxamide]
- inhibition at 0.00508 µM ([1]; replicate 1, read-out: Inh % 1): -8.5%
- inhibition at 0.00508 µM ([1]; replicate 2, read-out: Inh % 2): -9.3%
- inhibition at 0.0152 µM ([1]; replicate 1, read-out: Inh % 1): 1.1%
- inhibition at 0.0152 µM ([1]; replicate 2, read-out: Inh % 2): -4.9%
- inhibition at 0.0457 µM ([1]; replicate 1, read-out: Inh % 1): -11.2%
- inhibition at 0.0457 µM ([1]; replicate 2, read-out: Inh % 2): -10.5%
- inhibition at 0.41 µM ([1]; replicate 1, read-out: Inh % 1): -6.2%
- inhibition at 0.41 µM ([1]; replicate 2, read-out: Inh % 2): -16.8%
- inhibition at 1.23 µM ([1]; replicate 1, read-out: Inh % 1): -5.3%
- inhibition at 1.23 µM ([1]; replicate 2, read-out: Inh % 2): -11.1%
- inhibition at 3.7 µM ([1]; replicate 1, read-out: Inh % 1): -4.9%
- inhibition at 3.7 µM ([1]; replicate 2, read-out: Inh % 2): -6.8%
- inhibition at 11.11 µM ([1]; replicate 1, read-out: Inh % 1): -3.6%
- inhibition at 11.11 µM ([1]; replicate 2, read-out: Inh % 2): -6.5%
- inhibition at 33.33 µM ([1]; replicate 1, read-out: Inh % 1): 3%
- inhibition at 33.33 µM ([1]; replicate 2, read-out: Inh % 2): -4.3%
- inhibition at 100 µM ([1]; replicate 1, read-out: Inh % 1): 16.7%
- inhibition at 100 µM ([1]; replicate 2, read-out: Inh % 2): 7.9%
- IC50 [1]: > 100 µM
- inhibition at 0.01 µM (PARP-2; [3]): 32.8%
- inhibition at 0.01 µM (PARP-2; [4]): 32.8%
- IC50 [2]: > 100 µM
- inhibition at 0.00508 µM ([2]; replicate 1, read-out: Inh % 1): -3.2%
- inhibition at 0.00508 µM ([2]; replicate 2, read-out: Inh % 2): 4.5%
- inhibition at 0.0152 µM ([2]; replicate 1, read-out: Inh % 1): -3%
- inhibition at 0.0152 µM ([2]; replicate 2, read-out: Inh % 2): -13.2%
- inhibition at 0.0457 µM ([2]; replicate 1, read-out: Inh % 1): -3.1%
- inhibition at 0.0457 µM ([2]; replicate 2, read-out: Inh % 2): -9.3%
- inhibition at […] ([2]; replicate 1, read-out: Inh % 1): 0.182%
- inhibition at […] ([2]; replicate 2, read-out: Inh % 2): -8.2%
- inhibition at 0.41 µM ([2]; replicate 1, read-out: Inh % 1): 4%
- inhibition at 0.41 µM ([2]; replicate 2, read-out: Inh % 2): -2.2%
- inhibition at 1.23 µM ([2]; replicate 1, read-out: Inh % 1): -2.5%
- inhibition at 1.23 µM ([2]; replicate 2, read-out: Inh % 2): -0.9%
- inhibition at 3.7 µM ([2]; replicate 1, read-out: Inh % 1): 0.8%
- inhibition at 3.7 µM ([2]; replicate 2, read-out: Inh % 2): 2.3%
- inhibition at 11.11 µM ([2]; replicate 1, read-out: Inh % 1): -3.4%
- inhibition at 11.11 µM ([2]; replicate 2, read-out: Inh % 2): 4.2%
- inhibition at 33.33 µM ([2]; replicate 1, read-out: Inh % 1): -1.1%
- inhibition at 33.33 µM ([2]; replicate 2, read-out: Inh % 2): -7.7%
- inhibition at 100 µM ([2]; replicate 1, read-out: Inh % 1): 0.459%
- inhibition at 100 µM ([2]; replicate 2, read-out: Inh % 2): -6%
- inhibition at 0.01 µM (PARP-1; [5]): 24.8%
- inhibition at 0.01 µM (PARP-1; [6]): 24.8%

SMILES: NC(=O)c1cccc2[nH]c(C3CCN(CCCNC(=O)c4ccccc4)C3)nc12 (stereo not shown) [Compound 5cn, 2-(1-(3-Benzamidopropyl)pyrrolidin-3-yl)-1H-benzo[d]imidazole-4-carboxamide]
- inhibition at 0.00508 µM ([1]; replicate 1, read-out: Inh % 1): 1.6%
- inhibition at 0.00508 µM ([1]; replicate 2, read-out: Inh % 2): -5.1%
- inhibition at 0.0152 µM ([1]; replicate 1, read-out: Inh % 1): -1.4%
- inhibition at 0.0152 µM ([1]; replicate 2, read-out: Inh % 2): -3.5%
- inhibition at 0.0457 µM ([1]; replicate 1, read-out: Inh % 1): -9.2%
- inhibition at 0.0457 µM ([1]; replicate 2, read-out: Inh % 2): -11%
- inhibition at 0.41 µM ([1]; replicate 1, read-out: Inh % 1): -8.3%
- inhibition at 0.41 µM ([1]; replicate 2, read-out: Inh % 2): -13.4%
- inhibition at 1.23 µM ([1]; replicate 1, read-out: Inh % 1): -3%
- inhibition at 1.23 µM ([1]; replicate 2, read-out: Inh % 2): -5.3%
- inhibition at 3.7 µM ([1]; replicate 1, read-out: Inh % 1): -5.2%
- inhibition at 3.7 µM ([1]; replicate 2, read-out: Inh % 2): -8.2%
- inhibition at 11.11 µM ([1]; replicate 1, read-out: Inh % 1): -2.1%
- inhibition at 11.11 µM ([1]; replicate 2, read-out: Inh % 2): -9.2%
- inhibition at 33.33 µM ([1]; replicate 1, read-out: Inh % 1): 12.1%
- inhibition at 33.33 µM ([1]; replicate 2, read-out: Inh % 2): 1.5%
- inhibition at 100 µM ([1]; replicate 1, read-out: Inh % 1): 21.7%
- inhibition at 100 µM ([1]; replicate 2, read-out: Inh % 2): 20.8%
- IC50 [1]: > 100 µM
- inhibition at 0.01 µM (PARP-2; [3]): 39.1%
- inhibition at 0.01 µM (PARP-2; [4]): 39.1%
- IC50 [2]: > 100 µM
- inhibition at 0.00508 µM ([2]; replicate 1, read-out: Inh % 1): 9.5%
- inhibition at 0.00508 µM ([2]; replicate 2, read-out: Inh % 2): -3.8%
- inhibition at 0.0152 µM ([2]; replicate 1, read-out: Inh % 1): -9.3%
- inhibition at 0.0152 µM ([2]; replicate 2, read-out: Inh % 2): -9.4%
- inhibition at 0.0457 µM ([2]; replicate 1, read-out: Inh % 1): 1%
- inhibition at 0.0457 µM ([2]; replicate 2, read-out: Inh % 2): 6.5%
- inhibition at […] ([2]; replicate 1, read-out: Inh % 1): 4.6%
- inhibition at […] ([2]; replicate 2, read-out: Inh % 2): -10%
- inhibition at 0.41 µM ([2]; replicate 1, read-out: Inh % 1): -2.8%
- inhibition at 0.41 µM ([2]; replicate 2, read-out: Inh % 2): -4.1%
- inhibition at 1.23 µM ([2]; replicate 1, read-out: Inh % 1): 3.1%
- inhibition at 1.23 µM ([2]; replicate 2, read-out: Inh % 2): -3.2%
- inhibition at 3.7 µM ([2]; replicate 1, read-out: Inh % 1): 5.2%
- inhibition at 3.7 µM ([2]; replicate 2, read-out: Inh % 2): -3%
- inhibition at 11.11 µM ([2]; replicate 1, read-out: Inh % 1): 2.8%
- inhibition at 11.11 µM ([2]; replicate 2, read-out: Inh % 2): -7.6%
- inhibition at 33.33 µM ([2]; replicate 1, read-out: Inh % 1): 5.2%
- inhibition at 33.33 µM ([2]; replicate 2, read-out: Inh % 2): 2%
- inhibition at 100 µM ([2]; replicate 1, read-out: Inh % 1): 27.8%
- inhibition at 100 µM ([2]; replicate 2, read-out: Inh % 2): 14.3%
- inhibition at 0.01 µM (PARP-1; [5]): 19.4%
- inhibition at 0.01 µM (PARP-1; [6]): 19.4%
